Laboratory results published in publication PMC6410080 (Viruses, 2019).
Structures can show the parent of a compound that is named as a salt.

Test system: RRV
Assay: microbe, parasite or virus in culture
Format: cell-based
Details: Ross River virus, HeLa Kyoto, read-out: IC50 RRV

SMILES: O=C(Nc1ccc([N+](=O)[O-])cc1Cl)c1cc(Cl)ccc1O [Niclosamide]
- IC50: 0.82 µM

SMILES: CNc1ccc2oc(C[C@H]3O[C@@]4(CC[C@H]3C)O[C@H]([C@H](C)C(=O)c3ccc[nH]3)[C@H](C)C[C@H]4C)nc2c1C(=O)O [Calcimycin]
- IC50: 6.5 µM

SMILES: C=C1C(=O)O[C@H]2[C@H]1CC/C(C)=C/CC[C@@]1(C)O[C@@H]21 [Parthenolide]
- IC50: 7.7 µM

SMILES: CCN(CC)Cc1cc(Nc2ccnc3cc(Cl)ccc23)ccc1O [Amodiaquine, Amodiaquine dihydrochloride dihydrate]
- IC50: 6.2 µM

SMILES: CC(C)COCC(CN(Cc1ccccc1)c1ccccc1)N1CCCC1 (stereo not shown) [Bepridil, Bepridil hydrochloride]
- IC50: 4.6 µM

SMILES: CC[C@@]1([C@@H]2O[C@@H]([C@H]3O[C@@](O)(CO)[C@H](C)C[C@@H]3C)C[C@@H]2C)CC[C@H]([C@]2(C)CC[C@]3(C[C@H](O)[C@@H](C)[C@@H]([C@@H](C)[C@@H](OC)[C@H](C)C(=O)O)O3)O2)O1 [Monensin, Monensin sodium salt]
- IC50: 4.6 µM

SMILES: O=C1c2c(O)ccc(O)c2C(=O)c2c(NCCNCCO)ccc(NCCNCCO)c21 [Mitoxantrone, Mitoxantrone dihydrochloride]
- IC50: 4.9 µM
